{
  "source": "PubChem BioAssay (NCI)",
  "experiment_in_all_cases": "NCI anticancer screen, dose series, 48 h",
  "key": {"786-0 renal": {"system": "786-0 renal"}, "A498 renal": {"system": "A498 renal"}, "A549 NSCLC": {"system": "A549 NSCLC"}, "ACHN renal": {"system": "ACHN renal"}, "BT-549 breast": {"system": "BT-549 breast"}, "CCRF-CEM leukemia": {"system": "CCRF-CEM leukemia"}, "COLO 205 colon": {"system": "COLO 205 colon"}, "EKVX NSCLC": {"system": "EKVX NSCLC"}, "HCC-2998 colon": {"system": "HCC-2998 colon"}, "HCT-116 colon": {"system": "HCT-116 colon"}, "HCT-15 colon": {"system": "HCT-15 colon"}, "HL-60(TB) leukemia": {"system": "HL-60(TB) leukemia"}, "HOP-62 NSCLC": {"system": "HOP-62 NSCLC"}, "HOP-92 NSCLC": {"system": "HOP-92 NSCLC"}, "HS 578T breast": {"system": "HS 578T breast"}, "HT29 colon": {"system": "HT29 colon"}, "IGROV1 ovarian": {"system": "IGROV1 ovarian"}, "K-562 leukemia": {"system": "K-562 leukemia"}, "KM12 colon": {"system": "KM12 colon"}, "LOX IMVI melanoma": {"system": "LOX IMVI melanoma"}, "M14 melanoma": {"system": "M14 melanoma"}, "MALME-3M melanoma": {"system": "MALME-3M melanoma"}, "MCF7 breast": {"system": "MCF7 breast"}, "MDA-MB-231 breast": {"system": "MDA-MB-231 breast"}, "MDA-MB-435": {"system": "MDA-MB-435"}, "MOLT-4 leukemia": {"system": "MOLT-4 leukemia"}, "NCI-H226 lung": {"system": "NCI-H226 lung"}, "NCI-H23 lung": {"system": "NCI-H23 lung"}},
  "note": "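How tested: cells in 96-well plates exposed to compound for 48 hours at five concentrations. GI50: concentration for 50% inhibition of growth. TGI: concentration producing complete growth inhibition.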",
  "data": [
    {"smiles": "C/C=C\\C(=O)O[C@@H]1CC2O[C@@H]3C=C(C)C(=O)C[C@]3(C)[C@]1(C)[C@]21CO1", "values": [
      {"measurement": "GI50", "setting": "786-0 renal", "value": 615, "unit": "nM"},
      {"measurement": "TGI", "setting": "786-0 renal", "value": 3370, "unit": "nM"},
      {"measurement": "GI50", "setting": "A498 renal", "value": 676, "unit": "nM"},
      {"measurement": "TGI", "setting": "A498 renal", "value": 2380, "unit": "nM"},
      {"measurement": "GI50", "setting": "A549 NSCLC", "value": 795, "unit": "nM"},
      {"measurement": "TGI", "setting": "A549 NSCLC", "value": 10300, "unit": "nM"},
      {"measurement": "GI50", "setting": "ACHN renal", "value": 642, "unit": "nM"},
      {"measurement": "TGI", "setting": "ACHN renal", "value": 2770, "unit": "nM"},
      {"measurement": "GI50", "setting": "BT-549 breast", "value": 699, "unit": "nM"},
      {"measurement": "TGI", "setting": "BT-549 breast", "value": 1920, "unit": "nM"},
      {"measurement": "GI50", "setting": "CCRF-CEM leukemia", "value": 422, "unit": "nM"},
      {"measurement": "TGI", "setting": "CCRF-CEM leukemia", "value": 25000, "unit": "nM"},
      {"measurement": "GI50", "setting": "COLO 205 colon", "value": 459, "unit": "nM"},
      {"measurement": "TGI", "setting": "COLO 205 colon", "value": 1160, "unit": "nM"},
      {"measurement": "GI50", "setting": "EKVX NSCLC", "value": 873, "unit": "nM"},
      {"measurement": "TGI", "setting": "EKVX NSCLC", "value": 5700, "unit": "nM"},
      {"measurement": "GI50", "setting": "HCC-2998 colon", "value": 769, "unit": "nM"},
      {"measurement": "TGI", "setting": "HCC-2998 colon", "value": 2720, "unit": "nM"},
      {"measurement": "GI50", "setting": "HCT-116 colon", "value": 429, "unit": "nM"},
      {"measurement": "TGI", "setting": "HCT-116 colon", "value": 2630, "unit": "nM"},
      {"measurement": "GI50", "setting": "HCT-15 colon", "value": 671, "unit": "nM"},
      {"measurement": "TGI", "setting": "HCT-15 colon", "value": 16500, "unit": "nM"},
      {"measurement": "GI50", "setting": "HL-60(TB) leukemia", "value": 522, "unit": "nM"},
      {"measurement": "TGI", "setting": "HL-60(TB) leukemia", "value": 1350, "unit": "nM"},
      {"measurement": "GI50", "setting": "HOP-62 NSCLC", "value": 639, "unit": "nM"},
      {"measurement": "TGI", "setting": "HOP-62 NSCLC", "value": 1980, "unit": "nM"},
      {"measurement": "GI50", "setting": "HOP-92 NSCLC", "value": 538, "unit": "nM"},
      {"measurement": "TGI", "setting": "HOP-92 NSCLC", "value": 1890, "unit": "nM"},
      {"measurement": "GI50", "setting": "HS 578T breast", "value": 723, "unit": "nM"},
      {"measurement": "TGI", "setting": "HS 578T breast", "value": 2310, "unit": "nM"},
      {"measurement": "GI50", "setting": "HT29 colon", "value": 534, "unit": "nM"},
      {"measurement": "TGI", "setting": "HT29 colon", "value": 2330, "unit": "nM"},
      {"measurement": "GI50", "setting": "IGROV1 ovarian", "value": 842, "unit": "nM"},
      {"measurement": "TGI", "setting": "IGROV1 ovarian", "value": 6440, "unit": "nM"},
      {"measurement": "GI50", "setting": "K-562 leukemia", "value": 507, "unit": "nM"},
      {"measurement": "TGI", "setting": "K-562 leukemia", "value": 4480, "unit": "nM"},
      {"measurement": "GI50", "setting": "KM12 colon", "value": 567, "unit": "nM"},
      {"measurement": "TGI", "setting": "KM12 colon", "value": 5550, "unit": "nM"},
      {"measurement": "GI50", "setting": "LOX IMVI melanoma", "value": 209, "unit": "nM"},
      {"measurement": "TGI", "setting": "LOX IMVI melanoma", "value": 1640, "unit": "nM"},
      {"measurement": "GI50", "setting": "M14 melanoma", "value": 431, "unit": "nM"},
      {"measurement": "TGI", "setting": "M14 melanoma", "value": 962, "unit": "nM"},
      {"measurement": "GI50", "setting": "MALME-3M melanoma", "value": 612, "unit": "nM"},
      {"measurement": "TGI", "setting": "MALME-3M melanoma", "value": 2370, "unit": "nM"},
      {"measurement": "GI50", "setting": "MCF7 breast", "value": 459, "unit": "nM"},
      {"measurement": "TGI", "setting": "MCF7 breast", "value": 14900, "unit": "nM"},
      {"measurement": "GI50", "setting": "MDA-MB-231 breast", "value": 604, "unit": "nM"},
      {"measurement": "TGI", "setting": "MDA-MB-231 breast", "value": 2030, "unit": "nM"},
      {"measurement": "GI50", "setting": "MDA-MB-435", "value": 660, "unit": "nM"},
      {"measurement": "TGI", "setting": "MDA-MB-435", "value": 2670, "unit": "nM"},
      {"measurement": "GI50", "setting": "MOLT-4 leukemia", "value": 581, "unit": "nM"},
      {"measurement": "TGI", "setting": "MOLT-4 leukemia", "value": 2240, "unit": "nM"},
      {"measurement": "GI50", "setting": "NCI-H226 lung", "value": 648, "unit": "nM"},
      {"measurement": "TGI", "setting": "NCI-H226 lung", "value": 4360, "unit": "nM"},
      {"measurement": "GI50", "setting": "NCI-H23 lung", "value": 587, "unit": "nM"},
      {"measurement": "TGI", "setting": "NCI-H23 lung", "value": 2140, "unit": "nM"}
    ]}
  ]
}
